Laboratory results taken from ChEMBL document CHEMBL2434942, “β-Ionone derived chalcones as potent antiproliferative agents” (Eur J Med Chem, 2013).
Activity calls are given as the source filed them. No cut-off for these calls is given here.

What was measured:
PC-3 = test: Cytotoxicity against human PC3 cells after 48 hrs by SRB assay; assay type: functional, cell-based; settings: PC-3, 48 h
MCF7 = test: Cytotoxicity against human MCF7 cells after 48 hrs by SRB assay; assay type: functional, cell-based; settings: MCF7, 48 h
[1] = Cytotoxicity against human Hep cells after 48 hrs by SRB assay; assay type: functional, cell-based
HeLa = test: Cytotoxicity against human HeLa cells after 48 hrs by SRB assay; assay type: functional, cell-based
IMR-32 = test: Cytotoxicity against human IMR32 cells after 48 hrs by SRB assay; assay type: functional, cell-based; settings: IMR-32, 48 h
CHO [2] = test: Induction of apoptosis in CHO cells assessed as necrotic cells at 15 uM after 12 hrs using Annexin V/PI staining by flow cytometry (reference value: 3%); assay type: functional, Cricetulus griseus
CHO [3] = test: Induction of apoptosis in CHO cells assessed as late apoptotic cells at 15 uM after 12 hrs using Annexin V/PI staining by flow cytometry (reference value: 1%); assay type: functional, Cricetulus griseus
CHO [4] = test: Induction of apoptosis in CHO cells assessed as viable cells at 15 uM after 12 hrs using Annexin V/PI staining by flow cytometry (reference value: 91.8%); assay type: functional; settings: Cricetulus griseus, read-out: Activity
CHO [5] = test: Induction of apoptosis in CHO cells assessed as early apoptotic cells at 15 uM after 12 hrs using Annexin V/PI staining by flow cytometry (reference value: 4.3%); assay type: functional, Cricetulus griseus
CHO [6] = test: Induction of apoptosis in CHO cells assessed as necrotic cells at 5 uM after 12 hrs using Annexin V/PI staining by flow cytometry (reference value: 3%); assay type: functional, Cricetulus griseus
CHO [7] = test: Induction of apoptosis in CHO cells assessed as late apoptotic cells at 5 uM after 12 hrs using Annexin V/PI staining by flow cytometry (reference value: 1%); assay type: functional, Cricetulus griseus
CHO [8] = test: Induction of apoptosis in CHO cells assessed as viable cells at 5 uM after 12 hrs using Annexin V/PI staining by flow cytometry (reference value: 91.8%); assay type: functional; settings: Cricetulus griseus, read-out: Activity
CHO [9] = test: Induction of apoptosis in CHO cells assessed as early apoptotic cells at 5 uM after 12 hrs using Annexin V/PI staining by flow cytometry (reference value: 4.3%); assay type: functional, Cricetulus griseus
CHO [10] = test: Induction of apoptosis in CHO cells assessed as necrotic cells at 10 uM after 12 hrs using Annexin V/PI staining by flow cytometry (reference value: 3%); assay type: functional, Cricetulus griseus
CHO [11] = test: Induction of apoptosis in CHO cells assessed as late apoptotic cells at 10 uM after 12 hrs using Annexin V/PI staining by flow cytometry (reference value: 1%); assay type: functional, Cricetulus griseus
CHO [12] = test: Induction of apoptosis in CHO cells assessed as viable cells at 10 uM after 12 hrs using Annexin V/PI staining by flow cytometry (reference value: 91.8%); assay type: functional; settings: Cricetulus griseus, read-out: Activity
CHO [13] = test: Induction of apoptosis in CHO cells assessed as early apoptotic cells at 10 uM after 12 hrs using Annexin V/PI staining by flow cytometry (reference value: 4.3%); assay type: functional, Cricetulus griseus
CHO [14] = test: Cell cycle arrest in CHO cells assessed as accumulation at sub-G0 phase at 15 uM after 12 hrs using propidium iodide staining by FACS analysis (reference value: 19.8%); assay type: functional, Cricetulus griseus
CHO [15] = test: Cell cycle arrest in CHO cells assessed as accumulation at sub-G0 phase at 5 uM after 12 hrs using propidium iodide staining by FACS analysis (reference value: 19.8%); assay type: functional, Cricetulus griseus
CHO [16] = test: Cell cycle arrest in CHO cells assessed as accumulation at sub-G0 phase at 10 uM after 12 hrs using propidium iodide staining by FACS analysis (reference value: 19.8%); assay type: functional, Cricetulus griseus
CHO [17] = test: Induction of apoptosis in CHO cells assessed as cell shrinkage, membrane blebbing and formation of apoptotic body at 5 to 15 uM after 6 to 12 hrs by inverted light microscopic analysis; assay type: functional, cell-based; settings: Cricetulus griseus
CHO [18] = test: Induction of apoptosis in CHO cells assessed as cell shrinkage, membrane blebbing and formation of apoptotic body at 5 to 15 uM after 24 hrs by inverted light microscopic analysis; assay type: functional, cell-based; settings: Cricetulus griseus
CHO [19] = test: Cytotoxicity against CHO cells after 48 hrs by SRB assay; assay type: functional, cell-based; settings: Cricetulus griseus

| Compound | IC50 (PC-3) [µM] | IC50 (MCF7) [µM] | IC50 [1] [µM] | IC50 (HeLa) [µM] | IC50 (IMR-32) [µM] | further results |
| --- | --- | --- | --- | --- | --- | --- |
| CC(=O)O[C@H]1C(=O)[C@@]2(C)[C@H]([C@H](OC(=O)c3ccccc3)[C@]3(O)C[C@H](OC(=O)[C@H](O)[C@@H](NC(=O)c4ccccc4)c4ccccc4)C(C)=C1C3(C)C)[C@]1(OC(C)=O)CO[C@@H]1C[C@@H]2O [PACLITAXEL] | 1.5 | 0.5 | – | – | – | – |
| CC1=C(/C=C/C(=O)/C=C/c2ccc(Br)cc2)C(C)(C)CCC1 | 18.9 | 20.1 | 34.5 | 88.8 | 10.4 | – |
| CC1=C(/C=C/C(=O)/C=C/c2ccccc2F)C(C)(C)CCC1 | 3.4 | 11 | 23.6 | 41.9 | 15.6 | – |
| CC1=C(/C=C/C(=O)/C=C/c2ccc([N+](=O)[O-])cc2)C(C)(C)CCC1 | 1.9 | 5.5 | 55.5 | 28.7 | 3.2 | Activity (CHO [2]): 39.1%; Activity (CHO [3]): 7.5%; viability at 15 µM (CHO [4]): 52.3%; Activity (CHO [5]): 1.1%; Activity (CHO [6]): 19.4%; Activity (CHO [7]): 5.1%; viability at 5 µM (CHO [8]): 74.7%; Activity (CHO [9]): 0.8%; Activity (CHO [10]): 33.3%; Activity (CHO [11]): 5.8%; viability at 10 µM (CHO [12]): 59.5%; Activity (CHO [13]): 1.4%; Activity (CHO [14]): 48.1%; Activity (CHO [15]): 30.5%; Activity (CHO [16]): 36%; Activity (CHO [17]): Active; Activity (CHO [18]): Active; Activity (CHO [19]): Dose-dependent effect; IC50 (CHO [19]): 10 µM |
| CC1=C(/C=C/C(=O)/C=C/c2ccc(F)cc2)C(C)(C)CCC1 | 8.2 | 6.2 | 55.8 | 32.2 | 7.4 | – |
| CC1=C(/C=C/C(=O)/C=C/c2ccccc2[N+](=O)[O-])C(C)(C)CCC1 | 9.5 | 10.1 | 44.9 | 36.1 | 13.5 | – |
| CO[C@@]12[C@H](COC(N)=O)C3=C(C(=O)C(C)=C(N)C3=O)N1C[C@@H]1N[C@@H]12 [MITOMYCIN] | – | – | – | 2 | – | – |
| COc1ccccc1/C=C/C=C/C(=O)/C=C/C1=C(C)CCCC1(C)C | 25.3 | 55.4 | 65.3 | 33.5 | 72.4 | – |
| CC1=C(/C=C/C(=O)/C=C/c2ccccc2Cl)C(C)(C)CCC1 | 11.3 | 54.6 | 54.2 | 21.8 | 13.7 | – |
| COc1cc(/C=C/C(=O)/C=C/C2=C(C)CCCC2(C)C)cc(OC)c1OC | 32.6 | 18.7 | 45.5 | 73.2 | 55.5 | – |
| CC1=C(/C=C/C(=O)/C=C/c2ccc(C)cc2)C(C)(C)CCC1 | 21.5 | 23.8 | 44.1 | 20.4 | 19.2 | – |
| COc1ccc(/C=C/C(=O)/C=C/C2=C(C)CCCC2(C)C)cc1 | 58.7 | 19.6 | > 100 | 15.7 | 23.9 | – |
| CC1=C(/C=C/C(=O)/C=C/c2cccc3ccccc23)C(C)(C)CCC1 | 56.4 | 53.2 | > 100 | 65.4 | 43.8 | – |
| CC1=C(/C=C/C(=O)/C=C/c2ccoc2)C(C)(C)CCC1 | 50.3 | 100 | > 100 | 88.4 | 56.8 | – |
| CC1=C(/C=C/C(=O)/C=C/c2cccnc2)C(C)(C)CCC1 | 10.2 | 15.5 | 45.6 | 17.4 | 25.3 | – |
| CC1=C(/C=C/C(=O)/C=C/c2ccccc2Br)C(C)(C)CCC1 | 11.4 | 20.7 | 16.3 | 57.9 | 16.3 | – |
| CC1=C(/C=C/C(=O)/C=C/c2ccc(C#N)cc2)C(C)(C)CCC1 | 11.9 | 13.2 | 45.6 | 22.2 | 23.4 | – |
| CC1=C(/C=C/C(=O)/C=C/C=C/c2ccccc2)C(C)(C)CCC1 | 35.4 | 46.7 | > 100 | > 100 | 23.4 | – |
| CC1=C(/C=C/C(=O)/C=C/c2ccc(Cl)cc2)C(C)(C)CCC1 | 9.5 | 10.2 | 90.6 | 33.2 | 52.3 | – |
| CC1=C(/C=C/C(=O)/C=C/c2ccccc2C)C(C)(C)CCC1 | 44.1 | 44.6 | 41 | > 100 | 63.2 | – |
| CC1=C(/C=C/C(=O)/C=C/c2ccccc2)C(C)(C)CCC1 | 12.4 | 10.6 | 62.2 | 70.2 | 20.4 | – |
| CC[C@@]1(O)C(=O)OCc2c1cc1n(c2=O)Cc2cc3ccccc3nc2-1 [CAMPTOTHECIN] | – | – | – | – | – | Activity (CHO [10]): 21.6%; Activity (CHO [11]): 2.4%; viability at 10 µM (CHO [12]): 74.8%; Activity (CHO [13]): 1.2%; Activity (CHO [16]): 50.5% |
| COc1ccccc1/C=C/C(=O)/C=C/C1=C(C)CCCC1(C)C | 14.2 | 13.4 | 38.9 | 88.2 | 19.2 | – |
| CC1=C(/C=C/C(=O)/C=C/c2ccc(Cl)c(Cl)c2)C(C)(C)CCC1 | 35.5 | 53.5 | > 100 | > 100 | 72.4 | – |
| O=c1[nH]cc(F)c(=O)[nH]1 [FLUOROURACIL] | – | – | 0.5 | – | 1.3 | – |
| COc1ccc(/C=C/C(=O)/C=C/C2=C(C)CCCC2(C)C)cc1OC | 30.2 | 35.6 | 72.4 | 85 | 29.2 | – |
